Values joined by “and” are separate entries in the source; they are usually repeats but may differ in a detail not shown here. Equal values may be shown once.

Data on four compounds can be found in article PMC7501296, “Rapid and direct control of target protein levels with VHL-recruiting dTAG molecules” (Nature Communications, 2020).

What all share (type): cell-based
One experiment has as its target T1, FKBP12^F36V-KRAS^G12V (Homo sapiens, UniProt P01116+P62942, F37V/G12V).
T1 construct: KRAS G12V (fusion partner, same polypeptide); expressed in transfected cells
The experiment can be described thus: Immunoblot of PATU-8902 FKBP12F36V-KRASG12V; KRAS-/- clone. The note with it: pretreated 2 h prior to dTAGV-1 for 4 h. On the procedure: (§1) PATU-8902 LACZ-FKBP12^F36V and FKBP12^F36V-KRAS^G12V; KRAS^−/− cells and 293T cells were lysed with RIPA buffer supplemented with cOmplete protease inhibitors (Roche), PhosSTOP phosphatase inhibitors (Roche), and 0.1% benzonase (Novagen). Proteins were separated using NuPAGE Bolt^TM Bis–Tris gels (Thermo Fisher Scientific) and transferred to nitrocellulose membranes, which were blocked with Odyssey Blocking Buffer (LI-COR) and incubated with primary antibodies overnight. Membranes were washed three times with TBS-T, incubated with the appropriate fluorescently labeled infrared secondary antibodies, washed again three times with TBS-T, and assessed using an Odyssey CLx Imager (LI-COR)[6],[15]. EWS502 cells were lysed with Cell Lysis Buffer (Cell Signaling Technology) supplemented with cOmplete protease inhibitors (Roche). Proteins were separated using SDS-PAGE gels and transferred to PVDF membranes, which were blocked with 5% milk in TBS-T and incubated with primary antibodies overnight. Membranes were washed five times with TBS-T, incubated with the appropriate horseradish peroxidase-conjugated secondary antibodies, washed again five times with TBS-T, and imaged. The following primary antibodies were employed in this study: HA (Cell Signaling Technology #3724 and #2367, dilution at 1:1000), phospho-ERK1/2 T202/Y204 (Cell Signaling Technology #4370, dilution at 1:1000), ERK1/2 (Cell Signaling Technology #4696, dilution at 1:1000), phospho-AKT S473 (Cell Signaling Technology #4060, dilution at 1:1000), AKT (Cell Signaling Technology #2920, dilution at 1:1000), FKBP12 (Abcam #ab24373, dilution at 1:1000), GFP (Cell Signaling Technology #2555, dilution at 1:1000), FLI (Abcam #ab15289, dilution at 1:2000), NKX2-2 (Abcam #ab187375, dilution at 1:1000), GAPDH (Cell Signaling Technology #2118, dilution at 1:3000), Vinculin (Cell Signaling Technology #13901, dilution at 1:3000), β-Actin (Cell Signaling Technology #58169, dilution at 1:3000), and α-Tubulin (Cell Signaling Technology #3873, dilution at 1:5000). Species-specific fluorescently labeled infrared secondary antibodies including IRDye 680LT anti-Mouse IgG (LI-COR #926-68020, dilution at 1:5000), IRDye 800CW anti-Mouse IgG (LI-COR #926-32210, dilution at 1:5000), IRDye 680LT anti-Rabbit IgG (LI-COR #926-68021, dilution at 1:5000), and IRDye 800CW anti-Rabbit IgG (LI-COR #926-32211, dilution at 1:5000) and peroxidase-linked secondary antibodies including anti-Mouse IgG (Thermo Fisher Scientific #45000680, dilution at 1:5000) and anti-Rabbit IgG (Thermo Fisher Scientific #45000682, dilution at 1:5000) were employed as appropriate.
For orientation: In western blotting, separated proteins are transferred to a membrane and probed.

The target in another experiment is T2, CDK9 (Homo sapiens, UniProt P50750).
T2 construct: endogenous in cells; host or cells: PATU-8902 LACZ-FKBP12^F36V clone
In words: Immunoblot, co-treatment with THAL-SNS-032 and/or dTAGV-1 in PATU-8902 LACZ-FKBP12F36V clone. To be noted: co-treatment dTAGV-1 + THAL-SNS-032, 24 h. On the procedure: as §1, with “Species-specific fluorescently labeled infrared secondary antibodies including IRDye 680LT anti-Mouse IgG (LI-COR #926-68020, dilution at 1:5000), IRDye 800CW anti-Mouse IgG (LI-COR #926-32210, dilution at 1:5000), IRDye 680LT anti-Rabbit IgG (LI-COR #926-68021, dilution at 1:5000), and IRDye 800CW anti-Rabbit IgG (LI-COR #926-32211, dilution at 1:5000) and peroxidase-linked secondary antibodies including anti-Mouse IgG (Thermo Fisher Scientific #45000680, dilution at 1:5000) and anti-Rabbit IgG (Thermo Fisher Scientific #45000682, dilution at 1:5000) were employed as appropriate.” left out

Experiment [1] deals with EWS502 FKBP12^F36V-EWS/FLI; EWS/FLI^−/− cells. In words: Relative growth of EWS502 FKBP12F36V-EWS/FLI; EWS/FLI-/- cells (CellTiter-Glo). To be noted: for Antiproliferation (relative growth): replicate values. On the procedure:
Cell viability was assayed in 2D-adherent or ultra-low adherent 3D-spheroids using CellTiter-Glo (Promega)[6],[15]. Luminescence was measured on an Envision 2104 plate reader (PerkinElmer) and Fluostar Omega Reader (BMG Labtech) and data was analyzed using GraphPad PRISM v8. Synergy assessments were performed using CellTiter-Glo (Promega) with the following modifications to the protocol described in the ref. [34]. In brief, EWS502 cells were plated at 1000 cells per well in 50 µL of appropriate media in 384-well white culture plates (Corning) allowed to adhere overnight, and 100 nL of compounds were added using a Janus Workstation pin tool (PerkinElmer) for 72 h. Cell viability was measured by addition of 10 µL of CellTiter-glo (Promega), followed by incubation for 15 minutes at room temperature. Luminescence was measured on an Envision 2104 plate reader (PerkinElmer) and data was analyzed using GraphPad PRISM v8.
(In general: In ATP-based viability assays light output follows the ATP content of the culture.)

Experiment [2] has as its system PATU-8902 FKBP12^F36V-KRAS^G12V; KRAS^-/- clone. The experiment can be described thus: Antiproliferation, PATU-8902 FKBP12F36V-KRASG12V; KRAS-/- clone, 2D-monolayer (CellTiter-Glo).
The test system of another experiment is FKBP12^F36V-EWS/FLI. In words: Immunoblot of EWS502 FKBP12F36V-EWS/FLI; EWS/FLI-/- cells. The procedure: To generate 293T^WT FKBP12^F36V-KRAS^G12V and 293T^VHL−/− FKBP12^F36V-KRAS^G12V cells, concentrated lentiviral supernatants[6] were applied to 293T^WT and 293T^VHL−/− cells[33] in the presence of 4 µg mL^−1 polybrene and transduced cell lines were selected with 2 µg mL^−1 puromycin. To generate EWS502 FKBP12^F36V-GFP cells, EWS502 cells were transduced with pLEX_305-dTAG-GFP lentiviral supernatant and selected with 1 µg mL^−1 puromycin. To generate EWS502 FKBP12^F36V-EWS/FLI; EWS/FLI^−/− cells, EWS502 cells were co-transduced with pLEX_305-dTAG-EWS/FLI and lentiCRISPR v2-Blast-sgFLI_Ex9 lentiviral supernatants. Cells were then selected with both 1 µg mL^−1 puromycin (pLEX_305-dTAG-EWS/FLI) and 5 µg mL^−1 blasticidin (lentiCRISPR v2-Blast-sgFLI_Ex9). Knockout of endogenous EWS/FLI and the expression of exogenous FKBP12^F36V-EWS/FLI were confirmed by immunoblot and pooled transduced cell populations were employed for this study. PATU-8902 LACZ-FKBP12^F36V and FKBP12^F36V-KRAS^G12V; KRAS^−/− clones were also employed in this study.
PATU-8902 LACZ-FKBP12^F36V and FKBP12^F36V-KRAS^G12V; KRAS^−/− cells and 293T cells were lysed with RIPA buffer supplemented with cOmplete protease inhibitors (Roche), PhosSTOP phosphatase inhibitors (Roche), and 0.1% benzonase (Novagen). Proteins were separated using NuPAGE Bolt^TM Bis–Tris gels (Thermo Fisher Scientific) and transferred to nitrocellulose membranes, which were blocked with Odyssey Blocking Buffer (LI-COR) and incubated with primary antibodies overnight. Membranes were washed three times with TBS-T, incubated with the appropriate fluorescently labeled infrared secondary antibodies, washed again three times with TBS-T, and assessed using an Odyssey CLx Imager (LI-COR)[6],[15]. EWS502 cells were lysed with Cell Lysis Buffer (Cell Signaling Technology) supplemented with cOmplete protease inhibitors (Roche). Proteins were separated using SDS-PAGE gels and transferred to PVDF membranes, which were blocked with 5% milk in TBS-T and incubated with primary antibodies overnight. Membranes were washed five times with TBS-T, incubated with the appropriate horseradish peroxidase-conjugated secondary antibodies, washed again five times with TBS-T, and imaged. […]

For experiment [3], the system named is PATU-8902 LACZ-FKBP12^F36V clone. The experiment can be described thus: Antiproliferation, PATU-8902 LACZ-FKBP12F36V clone, 2D-monolayer (CellTiter-Glo). The method, boiled down: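 Viability of cells grown as 2D-adherent monolayers was determined with the CellTiter-Glo luminescent reagent (Promega). Luminescence signals were read on either an Envision 2104 plate reader (PerkinElmer) or a Fluostar Omega Reader (BMG Labtech), and the resulting data were processed and analyzed in GraphPad PRISM v8 software.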

T1 sequence (P62942+P01116 fused P62942:F37V/P01116:G12V): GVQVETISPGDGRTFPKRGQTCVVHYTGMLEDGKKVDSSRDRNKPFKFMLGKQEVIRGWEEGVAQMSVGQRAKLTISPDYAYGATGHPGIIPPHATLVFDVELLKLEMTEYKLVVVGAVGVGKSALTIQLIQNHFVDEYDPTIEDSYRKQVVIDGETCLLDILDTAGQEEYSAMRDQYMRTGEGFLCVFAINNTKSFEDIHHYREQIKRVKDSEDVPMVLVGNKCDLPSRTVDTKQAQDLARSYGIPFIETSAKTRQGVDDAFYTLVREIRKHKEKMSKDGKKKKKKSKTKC

Take `NS(=O)(=O)OC[C@@H]1C[C@@H](n2ccc3c(N[C@H]4CCc5ccccc54)ncnc32)C[C@@H]1O` [MLN4924]: the “Effect of pre-treatment on dTAGV-1-induced KRASG12V degradation” value at FKBP12^F36V-KRAS^G12V is reported as “rescued”.
For `CC(C)(C)c1cnc(CSc2cnc(NC(=O)C3CCN(CC(=O)NCCOCCOCCOCCNc4cccc5c4C(=O)N(C4CCC(=O)NC4=O)C5=O)CC3)s2)o1` (stereo not drawn) [THAL-SNS-032], the “Degradation of both LACZ-FKBP12F36V and CDK9 on co-treatment” value on CDK9 is reported as “pronounced degradation”.
Regarding `CC(C)C[C@H](NC(=O)[C@H](CCc1ccccc1)NC(=O)CN1CCOCC1)C(=O)N[C@@H](Cc1ccccc1)C(=O)N[C@@H](CC(C)C)C(=O)[C@@]1(C)CO1` [carfilzomib], at FKBP12^F36V-KRAS^G12V, the “Effect of pre-treatment on dTAGV-1-induced KRASG12V degradation” value was “rescued”.
On to `CC[C@H](C(=O)N1CCCC[C@H]1C(=O)O[C@H](CCc1ccc(OC)c(OC)c1)c1ccccc1OCC(=O)NCCOCCOCCOCC(=O)N[C@H](C(=O)N1C[C@H](O)C[C@H]1C(=O)N[C@@H](C)c1ccc(-c2scnc2C)cc1)C(C)(C)C)c1cc(OC)c(OC)c(OC)c1` [dTAG-63], for which the “Antiproliferation (relative growth)” value in experiment [1] (Time 0 days) was 1.033 and 1 and 1.041 and 1.01 and 1.018 and 1.028 and 1.023 and 0.847; in experiment [1] (Time 3 days), 5.323 and 5.646 and 6.274 and 5.9 and 5.4745 and 5.572 and 6.329 and 5.374; in experiment [1] (Time 5 days), 8.718 and 8.673 and 8.208 and 9.16 and 8.872 and 9.224 and 8.694 and 9.906; in experiment [1] (Time 7 days) it was 8.087 and 8.192 and 8.728 and 8.891 and 8.43 and 7.949 and 9.536 and 9.221. Also, the “Antiproliferative effects upon EWS/FLI degradation” value in experiment [1] (longer time-points) was “modest antiproliferative effects”. Also, the DMSO-normalized antiproliferation is 1.902 and 1.7836 and 2.592 and 1.417 in experiment [2] (log10[compound] (M) -4.69897); 1.019 and 0.7215 and 1.043 and 0.8704 in experiment [2] (log10[compound] (M) -5.19897); 18.9261 and 16.9894 and 19.5961 and 18.1242 in experiment [2] (log10[compound] (M) -5.69897); 26.0652 and 23.4484 and 26.4223 and 22.5834 in experiment [2] (log10[compound] (M) -6.19897); 29.8671 and 30.9365 and 33.7587 and 28.015 in experiment [2] (log10[compound] (M) -6.69897); 63.0328 and 57.9113 and 61.3608 and 60.3114 in experiment [2] (log10[compound] (M) -7.19897). Also, the DMSO-normalized antiproliferation in experiment [2] (log10[compound] (M) -7.69897) is 91.5315 and 97.3637 and 98.717 and 90.5671; in experiment [2] (log10[compound] (M) -8.19897) it was 103.715 and 106.791 and 102.663 and 104; in experiment [2] (log10[compound] (M) -8.69897), 99.9165 and 93.5571 and 104.512 and 109.434; in experiment [2] (log10[compound] (M) -9.19897) it was 108.333 and 105.196 and 111.04 and 104.691; in experiment [3] (log10[compound] (M) -4.69897), 13.2737 and 12.6329 and 14.1104 and 10.912; in experiment [3] (log10[compound] (M) -5.19897) it was 7.875 and 6.856 and 8.909 and 8.0101. The DMSO-normalized antiproliferation in experiment [3] (log10[compound] (M) -5.69897) is 78.4433 and 69.3624 and 75.8082 and 79.7492; in experiment [3] (log10[compound] (M) -6.19897), 113.01 and 109.862 and 96.0186 and 107.676; in experiment [3] (log10[compound] (M) -6.69897), 108.532 and 100.339 and 100.126 and 107.64; in experiment [3] (log10[compound] (M) -7.19897), 112.463 and 103.538 and 107.565 and 99.0951; in experiment [3] (log10[compound] (M) -7.69897), 105.646 and 110.739 and 108.339 and 103.433; in experiment [3] (log10[compound] (M) -8.19897), 104.397 and 99.4398 and 102.394 and 104.585. In addition, the DMSO-normalized antiproliferation in experiment [3] (log10[compound] (M) -8.69897) was 100.586 and 98.6181 and 103.288 and 91.8912; in experiment [3] (log10[compound] (M) -9.19897), 97.4681 and 95.2333 and 95.4033 and 78.5397. In addition, the “FKBP12F36V-EWS/FLI degradation, immunoblot” value in the experiment on FKBP12^F36V-EWS/FLI (EWS502 FKBP12F36V-EWS/FLI, EWS/FLI-/- cells) was “marginal degradation”. In addition, the “NKX2-2 protein levels, immunoblot” value in the experiment with FKBP12^F36V-EWS/FLI (relative to dTAGV-1) was “limited changes”.
